Experiments:
[1] = test system: SK-MEL-2 (melanoma); assay: MTS cell viability assay, SK-MEL-2; assay type: cell-based; settings: Homo sapiens, SK-MEL-2, cells incubated 72 h
Description: (§1) Cells were plated, the evening before treatment, for each treatment on 96-well plates (1×10^4 cells/well) in 100 μL volume per well. Analog solutions were prepared by diluting each test compound in DSMO (10 mM) with the appropriate cell growth media for each individual cell line, or in “Universal Media” if several cell lines were to be assayed in parallel, immediately prior to cell treatment. Universal Media consisted of 5 mL sodium pyruvate (100× liquid stock, MediaTech), 5 mL glucose (100×, 45% liquid stock, MediaTech), 5 mL Penicillin/Streptomycin (100× liquid stock, MediaTech), 10 mL sodium bicarbonate (50× liquid stock, MediaTech), 25 mL Fetal Calf Serum, 1.25 mL insulin (4 mg/mL, Gibco) and […] RPMI media with 2 mM L-glutamine for a total volume of 500 mL.
(§2) Cells were treated by aspirating plating media from each well and adding 80 μL of betulinic acid (control) or each analog solution in serial dilutions to the adherent cells. All treatments were performed in triplicate. Growth media (80 μL) was added to 3 blank wells (no cells) to measure background from the growth media. Growth media alone (no DMSO or test compound) was added to 3 wells containing cells to measure the baseline MTS activity. Vehicle (DMSO) control in serial dilutions, added to cells, was also included to monitor basal toxicity from DMSO. Cells were incubated at 37° C. for 72 h, or 120 h for the OVCAR cell lines. MTS reagent (per 96-well plate) were prepared by combining 2 mL of MTS working solution (Cell Titer AQueous Non-Radioactive Cell Proliferation Assay, Promega, cat#G1112), 100 μL of 0.92 mg/mL phenazine methosulfate/Dulbecco's PBS and 2.1 mL growth media. MTS reagent (40 μL) were added to each well and incubated at 37° C. for 1.5 to 4 h. Plates were gently shaken by hand until solution in each well appeared homogenous. Absorbances at 490 nm were measured on a Wallac Victor II plate reader at multiple time points following the addition of MTS reagent for each plate. Triplicate absorbance (490 nm) measurements were averaged following background (no cell) subtraction for each drug concentration. Percent Cell Viability was calculated for each drug concentration using the following equation:
(§3) {[Absorbance(analog treated)]/[Absorbance(DMSO treated)]}×100%
(§4) Cytotoxicity dose response for the triterpenoid derivatives synthesized in SK-MEL-2 (melanoma), A-375 (melanoma), Daoy (glioblastoma), LN-229 (glioblastoma), OVCAR-3 (ovarian carcinoma), HT-29 (colon carcinoma), MCF-7 (breast carcinoma) cell lines using the standard MTS assay is summarized in Table 1. In Table 1, compounds 22a-d and compounds 23a-c refer to structures 22 and 23 in Scheme 5, respectively. Compounds 24aa-an and 24ba-bq refer to structure 24 in Scheme 6. Compounds 26a-e refer to structure 26 in Scheme 6. Compounds 36a-c refer to structure 36 in Scheme 10.

[2] = test system: A-375 (melanoma); assay: MTS cell viability assay, A-375; assay type: cell-based; settings: Homo sapiens, A-375, cells incubated 72 h
Description: as §1, §2, §3, §4

[3] = test system: Daoy; assay: MTS cell viability assay, Daoy; assay type: cell-based; settings: Homo sapiens, Daoy, cells incubated 72 h
Description: as §1, §2, §3, §4

[4] = test system: LN-229 (glioblastoma); assay: MTS cell viability assay, LN-229; assay type: cell-based; settings: Homo sapiens, LN-229, cells incubated 72 h
Description: as §1, §2, §3, §4

[5] = test system: OVCAR-3 (ovarian carcinoma); assay: MTS cell viability assay, OVCAR-3; assay type: cell-based; settings: Homo sapiens, OVCAR-3, 120 h for the OVCAR cell lines
Description: as §1, §2, §3, §4

[6] = test system: HT-29 (colon carcinoma); assay: MTS cell viability assay, HT-29; assay type: cell-based; settings: Homo sapiens, HT-29, cells incubated 72 h
Description: as §1, §2, §3, §4

[7] = test system: MCF-7 (breast carcinoma); assay: MTS cell viability assay, MCF-7; assay type: cell-based; settings: Homo sapiens, MCF7, cells incubated 72 h
Description: as §1, §2, §3, §4

[8] = test system: CEM; assay: MTS cell viability assay, CEM; assay type: cell-based; settings: Homo sapiens, CCRF-CEM, cells incubated 72 h
Description: as §1, §2, §3

[9] = test system: H-146; assay: MTS cell viability assay, H-146; assay type: cell-based; settings: Homo sapiens, NCI-H146, cells incubated 72 h
Description: as §1, §2, §3

## C=C(CO)[C@@H]1CC[C@]2(CO)CC[C@]3(C)[C@H](CC[C@@H]4[C@@]5(C)CCC(=O)C(C)(C)[C@@H]5CC[C@]43C)[C@@H]12 [Compound 7a]
[1]
  IC50: > 75 µM
[2]
  IC50: 40 µM
[3]
  IC50: > 75 µM
[4]
  IC50: > 75 µM
[5]
  IC50: 43 µM
[6]
  IC50: 44 µM
[7]
  IC50: 43 µM
[8]
  IC50: 45 µM
[9]
  IC50: 60 µM

## C=C(CO)[C@@H]1CC[C@]2(CO)CC[C@]3(C)[C@H](CC[C@@H]4[C@@]5(C)CCC(N)C(C)(C)[C@@H]5CC[C@]43C)[C@@H]12 (some centres unmarked) [Compound 24ab]
[1]
  IC50: 34 µM
[2]
  IC50: 6 µM
[3]
  IC50: 31 µM
[4]
  IC50: 17 µM
[5]
  IC50: 14 µM
[6]
  IC50: 17 µM
[7]
  IC50: 15 µM
other
  melting point: 189 to 199 °C

## C=C(CO)[C@@H]1CC[C@]2(CO)CC[C@]3(C)[C@H](CC[C@@H]4[C@@]5(C)C=CC(=O)C(C)(C)[C@@H]5CC[C@]43C)[C@@H]12 [Compound 30]
[1]
  IC50: > 75 µM
[2]
  IC50: 61 µM
[3]
  IC50: > 75 µM
[4]
  IC50: 68 µM
[5]
  IC50: > 75 µM
[6]
  IC50: 67 µM
[7]
  IC50: > 75 µM
[8]
  IC50: 16 µM
[9]
  IC50: 66 µM

## C=C(C=O)[C@@H]1CC[C@]2(COC3CCCCO3)CC[C@]3(C)[C@H](CC[C@@H]4[C@@]5(C)C=CC(=O)C(C)(C)[C@@H]5CC[C@]43C)[C@@H]12 (some centres unmarked) [Compound 34]
[1]
  IC50: 2 µM
[2]
  IC50: 1 µM
[3]
  IC50: 6 µM
[4]
  IC50: 6 µM
[5]
  IC50: 2 µM
[6]
  IC50: 2 µM
[7]
  IC50: 8 µM
[8]
  IC50: 1 µM
[9]
  IC50: 2 µM

## C=C(C=O)[C@@H]1CC[C@]2(CO)CC[C@]3(C)[C@H](CC[C@@H]4[C@@]5(C)C=CC(=O)C(C)(C)[C@@H]5CC[C@]43C)[C@@H]12 [Compound 35]
[1]
  IC50: 14 µM
[2]
  IC50: 6 µM
[3]
  IC50: 17 µM
[4]
  IC50: 58 µM
[5]
  IC50: 6 µM
[6]
  IC50: 8 µM
[7]
  IC50: 32 µM
[8]
  IC50: 2 µM
[9]
  IC50: 5 µM

From patent publication US20090062243A1, “Lupane-Type Triterpenoids Modified at 30-Position and Analogues Thereof” (ADVANCED LIFE SCIENCES, INC., priority 2007, published 2009)
